This is an account of results in patent EP0609289B1, “IMIDAZOLE DERIVATIVES AND PHARMACEUTICAL COMPOSITIONS CONTAINING THE SAME” (THE UPJOHN COMPANY, priority 1991, dated 1993).

The assay deals with Angiotensin II receptor. The assay is described as follows: In vitro angiotensin II mesenteric artery receptor binding assay (test 1). The following applies: rat mesenteric artery membrane fraction, 0.2 nM 125I-Ang II, 22°C, 90 minutes. As for the experimental part:
I) In vitro angiotensin II mesenteric artery receptor binding assay
According to the method (1) by Gunther et al., a membrane fraction was prepared from mesenteric artery of male rat, […] protein equivalent of it and 0.2 nM ^125I-Ang II as well as various concentrations of test compounds were incubated at 22°C for 90 minutes in an incubation buffer (50 mM Tris-HCl, 120 mM NaCl, 5 mM MgCl2. 0.25% bovine serum albumin, pH 7.2) (reaction volume; 200 µl). The incubated was cooled, and the reaction was stopped by addition of ice-cooled phosphate buffer (10 mM phosphate, 140 mM NaCI, pH 7.4, hereinafter referred to as PBS), and then the reaction solution was filtered through a glass fiber filter (Whatman CF/B), the filter was washed, dried, and then the radioactivity of captured ^125I-angiotensin II which bound to the receptor was measured by a γ-counter. Non-specific bound amount was obtained from the reaction in the presence of 1 µM of unlabeled angiotensin II. […] Res., 17:278-286, 1980].

In the case of `CCCc1nc2c(=O)n3n(c(=O)c2n1Cc1ccc(-c2ccccc2-c2nnn[nH]2)cc1)C1(COCC(C)O)CCC3CC1` (centres unmarked) [Compound No. 229, 5,8-ethano-8-(2-hydroxypropyl)methoxymethyl-2-n-propyl-5,6,7,8-tetrahydro-1-[{2'-(1H-tetrazol-5-yl)biphenyl-4-yl}methyl]-1H-1,3,4a,8a-tetraza-cyclopentanaphthalene-4,9-dione], the IC50 – broadly, the concentration that gives 50% inhibition – worked out at 8.7 nM.
Next, `CCCCc1nc2c(=O)n3n(c(=O)c2n1Cc1ccc(C(=O)O)cc1)C1CCC3CC1` [compound 544, 2-n-butyl-1-[(4-carboxyphenyl)methyl]-5,8-ethano-5,6,7,8-tetrahydro-1H-1,3,4a,8a-tetraza-cyclopentanaphthalene-4,9-dione]: greater than 100 nM; `CCCc1nc2c(n1Cc1ccc(-c3ccccc3-c3nnn[nH]3)cc1)CN1C3CCC(CC3)N1C2` [Compound No. 523, 5,8-ethano-4,5,6,7,8,9-hexahydro-2-n-propyl-1-[{2'-(1H-tetrazol-5-yl)biphenyl-4-yl}methyl]-1H-1,3,4a,8a-tetraza-cyclopentanaphthalene]: greater than 100 nM; `CCc1nc2c(n1Cc1ccc(-c3ccccc3-c3nnn[nH]3)cc1)C(=O)N1N(C2)C2(CC)CCC1(CC)CC2` [Compound No. 453, 5,8-diethyl-5,8-ethano-2-ethyl-5,6,7,8-tetrahydro-1-[{2'-(1H-tetrazol-5-yl)biphenyl-4-yl}methyl]-1H,4H-1,3,4a,8a-tetraza-cyclopentanaphthalene-9-one]: greater than 100 nM.
The same measure for `CCCc1nc2c(=O)n3n(c(=O)c2n1Cc1ccc(-c2ccccc2-c2nn[nH]n2)cc1)C(C(=O)O)CCC3C` (centres unmarked) [compound 56, 4,9-dioxo-5-methyl-2-n-propyl-5,6,7,8-tetrahydro-1-[(2'-(1H-tetrazol-5-yl)biphenyl-4-yl)methyl]-1H-1,3,4a,8a-tetraza-cyclopentanaphthalene-8-carboxylic acid]: greater than 30 nM; for `CCCc1nc2c(=O)n3n(c(=O)c2n1Cc1ccc(-c2ccccc2-c2nn[nH]n2)cc1)C1CCC3(C(=O)N(CCO)CCO)CC1` [Compound No. 239, 4,9-dioxo-5,8-ethano-2-n-propyl-5,6,7,8-tetrahydro-1-[{2'-(1H-tetrazol-5-yl)biphenyl-4-yl}methyl]-1H-1,3,4a,8a-tetraza-cyclopentanaphthalene-5-carboxy-N,N-bis(2-hydroxyethyl)amide]: greater than 100 nM.
The same measure for `CCCc1nc2c(=O)n3n(c(=O)c2n1Cc1ccc(-c2ccccc2-c2nnn[nH]2)cc1)C(C(=O)NC(C)(C)C)CCC3C` (centres unmarked) [Compound No. 209, 4,9-dioxo-5-methyl-2-n-propyl-5,6,7,8-tetrahydro-1-[{2'-(1H-tetrazol-5-yl)biphenyl-4-yl}methyl]-1H-1,3,4a,8a-tetraza-cyclopentanaphthalene-8-carboxy-N-t-butylamide]: 58 nM; for `CCCCc1nc2c(n1Cc1ccc(-c3ccccc3-c3nnn[nH]3)cc1)CN1C(CO)CCC(C)N1C2=O` (centres unmarked) [Compound No. 540, 2-n-butyl-8-hydroxymethyl-5-methyl-5,6,7,8-tetrahydro-1-[{2'-(1H-tetrazol-5-yl)biphenyl-4-yl}methyl]-1H,9H-1,3,4a,8a-tetraza-cyclopentanaphthalene-4-one]: 34 nM.
`CCCCc1nc2c(=O)n3n(c(=O)c2n1Cc1ccc(-c2ccccc2-c2nn[nH]n2)cc1)C1(C(=O)NC(C)(C)C)CCC3CC1` [Compound No. 238, 2-n-butyl-4,9-dioxo-5,8-ethano-5,6,7,8-tetrahydro-1-[{2'-(1H-tetrazol-5-yl)biphenyl-4-yl}methyl]-1H-1,3,4a,8a-tetraza-cyclopentanaphthalene-8-carboxy-N-t-butylamide] returned an IC50 greater than 100 nM.
Molecule `CCCCc1nc2c(n1Cc1ccc(-c3ccccc3-c3nnn[nH]3)cc1)CN1C(C)CCC(CO)N1C2=O` (centres unmarked) [Compound No. 538, 2-n-butyl-5-hydroxymethyl-8-methyl-5,6,7,8-tetrahydro-1-[{2'-(1H-tetrazol-5-yl)biphenyl-4-yl}methyl]-1H-9H-1,3,4a,8a-tetraza-cyclopentanaphthalene-4-one] returned an IC50 greater than 100 nM.
For the molecule `CCCCc1nc2c(n1Cc1ccc(-c3ccccc3-c3nn[nH]n3)cc1)C(=O)N1N(C2)C2CCC1(C)CC2` [Compound No. 447, 2-n-butyl-5,8-ethano-8-methyl-5,6,7,8-tetrahydro-1-[{2'-(1H-tetrazol-5-yl)biphenyl-4-yl}methyl]-1H,4H-1,3,4a,8a-tetraza-cyclopentanaphthalene-9-one], the IC50 worked out at 2.5 nM.
The molecule `CCCc1nc2c(=O)n3n(c(=O)c2n1Cc1ccc(-c2ccccc2-c2nnn[nH]2)cc1)C1CCC3(COCC(C)O)CC1` (centres unmarked) [Compound No. 227, 5,8-ethano-5-(2-hydroxypropyl)methoxynethyl-2-n-propyl-5,6,7,8-tetrahydro-1-[{2'-(1H-tetrazol-5-yl)biphenyl-4-yl}methyl]-1H-1,3,4a,8a-tetraza-cyclopentanaphthalene-4,9-dione] had an IC50 of 38 nM. Compared with the last molecule, the IC50 is about 15-fold higher.
As for `CCCc1nc2c(=O)n3n(c(=O)c2n1Cc1ccc(-c2ccccc2-c2nn[nH]n2)cc1)C1(C(=O)N(CC)CC)CCC3CC1` [Compound No. 233, 4,9-dioxo-5,8-ethano-2-n-propyl-5,6,7,8-tetrahydro-1-[{2'-(1H-tetrazol-5-yl)biphenyl-4-yl}methyl]-1H-1,3,4a,8a-tetraza-cyclopentanaphthalene-8-carboxy-N,N-diethylamide], the IC50 is greater than 100 nM.
Next, “2-n-butyl-8-hydroxymethyl-5-methyl-5,6,7,8-tetrahydro-1H,4H-1,3,4a,8a-tetraza-cyclopentanaphthalene-9-one [Compound No. 542]”: 34 nM; `CCCCc1nc2c(n1Cc1ccc(-c3ccccc3-c3nn[nH]n3)cc1)C(=O)N1C3CCC(C)(CC3)N1C2` [Compound No. 443, 2-n-butyl-5,8-ethano-5-methyl-5,6,7,8-tetrahydro-1-[{2'-(1H-tetrazol-5-yl)biphenyl-4-yl}methyl]-1H,4H-1,3,4a,8a-tetraza-cyclopentanaphthalene-9-one]: 1.3 nM.
Next, `CCCc1nc2c(=O)n3n(c(=O)c2n1Cc1ccc(-c2ccccc2-c2nn[nH]n2)cc1)CC(CC)=C(CC)C3` [Compound No. 359, 6,7-diethyl-5,8-dihydro-2-n-propyl-5,6,7,8-tetrahydro-1-[{2'-(1H-tetrazol-5-yl)biphenyl-4-yl}methyl]-1H-1,3,4a,8a-tetraza-cyclopentanaphthalene-4,9-dione]: 35 nM.
Next, “2-n-butyl-5-hydroxymethyl-8-methyl-5,6,7,8-tetrahydro-1H,4H-1,3,4a,8a-tetraza-cyclopentanaphthalene-9-one [Compound No. 541]”: greater than 100 nM; `CCCc1nc2c(=O)n3n(c(=O)c2[nH]1)C1CCC3(C(C)(C)O)CC1` [Compound No. 323, 5,8-ethano-5-(1-hydroxy-1-methylethyl)-2-n-propyl-5,6,7,8-tetrahydro-1H-1,3,4a,8a-tetraza-cyclopentanaphthalene-4,9-dione]: greater than 100 nM.
The molecule `CCCCc1nc2c(=O)n3n(c(=O)c2n1Cc1ccc(-c2ccccc2-c2nn[nH]n2)cc1)C1(C(=O)OC)CCC3CC1` [Compound No. 156, methyl 2-n-butyl-5,8-ethano-4,9-dioxo-5,6,7,8-tetrahydro-1-[{2'-(1H-tetrazol-5-yl)biphenyl-4-yl}methyl]-1H-1,3,4a,8a-tetraza-cyclopentanaphthalene-8-carboxylate] gave a half-inhibitory concentration (IC50) of 69 nM.
The same measure for `C/C=C/c1nc2c(n1Cc1ccc(-c3ccccc3-c3nnn[nH]3)cc1)C(=O)N1N(C2)C2(CC)CCC1(CC)CC2` [compound 521, 5,8-diethyl-5,8-ethano-2-(1-E-propenyl)-5,6,7,8-tetrahydro-1-[{2'-(1H-tetrazol-5-yl)biphenyl-4-yl}methyl]-1H,4H-1,3,4a,8a-tetraza-cyclopentanaphthalene-9-one]: 9.1 nM; for `CCCCc1nc2c(=O)n3n(c(=O)c2n1Cc1ccc(-c2ccccc2-c2nnn[nH]2)cc1)C(C(=O)NC(C)(C)C)CCC3C` (centres unmarked) [Compound No. 210, 2-n-butyl-4,9-dioxo-5-methyl-5,6,7,8-tetrahydro-1-[{2'-(1H-tetrazol-5-yl)biphenyl-4-yl}methyl]-1H-1,3,4a,8a-tetraza-cyclopentanaphthalene-8-carboxy-N-t-butylamide]: 29 nM; for `CCCc1nc2c(n1Cc1ccc(-c3ccccc3-c3nn[nH]n3)cc1)C(=O)N1CC(C)C(C)CN1C2` (centres unmarked) [Compound No. 378, 6,7-dimethyl-2-n-propyl-5,6,7,8-tetrahydro-1-[{2'-(1H-tetrazol-5-yl)biphenyl-4-yl}methyl]-1H,4H-1,3,4a,8a-tetraza-cyclopentanaphthalene-9-one]: 4.6 nM.
With `CCCCc1nc2c(=O)n3n(c(=O)c2n1Cc1ccc(-c2ccccc2-c2nn[nH]n2)cc1)C1CCC3(C(=O)OC)CC1` [Compound No. 159, methyl 2-n-butyl-5,8-ethano-4,9-dioxo-5,6,7,8-tetrahydro-1-[{2'-(1H-tetrazol-5-yl)biphenyl4-yl}methyl]-1H-1,3,4a,8a-tetraza-cyclopentanaphthalene-5-carboxylate], the IC50 was 5.1 nM. This IC50 and that of the molecule before are within 1.5-fold of each other.
